Experimental findings from the NIST ThermoML archive (doi:10.1016/j.tca.2010.07.032) are described below.

“And” between values parts separate entries of the source, which are not always exact repeats. Equal values may be shown once. Numbers after ± are expanded uncertainties.

The conditions of the data set: Liquid; Temperature-Programmed Gas Chromatography.

With `CCC(C)OP(=O)(OC(C)CC)OC(C)CC` (stereo not drawn) [tri-sec-butyl phosphate], the Normal boiling temperature is 260.80 ± 26 °C and 261.06 ± 26 °C.
For the compound `CC(C)COP(=O)(OCC(C)C)OCC(C)C` [triisobutyl phosphate], the Normal boiling temperature was 264.67 ± 26 °C and 265.70 ± 27 °C.
As to `CC(C)CCOP(=O)(OCCC(C)C)OCCC(C)C` [triisopentyl phosphate], the Normal boiling temperature was 302.29 ± 30 °C and 302.37 ± 30 °C.
Turning to `CCCCCOP(=O)(OCCCCC)OCCCCC` [tripentyl phosphate], the Normal boiling temperature is 323.21 ± 32 °C and 326.62 ± 33 °C.
On to `CCCC(C)OP(=O)(OC(C)CCC)OC(C)CCC` (stereo not drawn) [tri-sec-amyl phosphate], for which the Normal boiling temperature was 282.02 ± 28 °C and 282.74 ± 28 °C.
In the case of `CCOP(=O)(OCC)OCC` [ethyl phosphate], the Normal boiling temperature is 215.89 ± 22 °C and 216.34 ± 22 °C.
For `CCCCCCOP(=O)(OCCCCCC)OCCCCCC` [trihexyl phosphate] the value was 366.12 ± 37 °C and 365.02 ± 36 °C; for `COP(=O)(OC)OC` [trimethyl orthophosphate], 195.06 ± 20 °C and 194.97 ± 20 °C.
